# In patent EP0738149B1 (priority 1994, dated 1995):
# Where two headings read alike, the source gives them in different places.
# Key:
# [1] = tested on: hypoxic rat; assay: Passive avoidance test in hypoxic rat, Experiment 3A; type: in vivo; details: Exp 3A, day 13 of drug treatment 0.5mg/kg/Day, Mean ± SEM; for latency of response, 48h after electroshock: maximum 300 seconds
# Description: Experiment 3A: Wistar male rats, 15-19 month-old, were exposed to a single hypoxic episode as described above. […] The passive avoidance test was performed on day 13 after initiation the drug treatment. The apparatus consisted of a lit chamber that can be separated from a dark chamber by a sliding door. At training, a rat is placed in the lit chamber for 30 seconds, then the door is opened. The rat moves to the dark chamber after a short delay - the latency, that is recorded. Upon entry into the dark chamber, the door is shut closed and a 0.3-mA footshock is delivered for 3 seconds by a Grass S-88 stimulator. Retention of the experience is determined after 48 hours by repeating the test and recording the latency to an arbitrary maximum of 300 seconds. Longer latencies are ascribed to retention of memory and improved cognition.
# [2] = tested on: hypoxia-lesioned rats; assay: Water maze working memory test in hypoxia-lesioned rats, Experiment 3B; type: in vivo, rat; details: 0.5mg/kg/day 60 days, ±SEM
# Description: The apparatus used consists of a circular water tank 160cm in diameter filled with water to a depth of 38cm. The water was made cloudy by the addition of milk powder. A clear Plexiglass 15cm platform, supported by a movable stand rest on the bottom of the tank was submerged to a depth of 2cm from the water surface. Normally a swimming rat cannot perceive the location of the platform but it may recall it from a previous experience and training, unless it suffers from some memory impairment. The time taken to locate the platform is measured in seconds and referred to as the latency. During the experiment all orientational cues such as ceiling lights etc. remained unchanged. Longer latencies are observed with rats with some impairment to their memory.
# Each rat was given two trails a day for four days, entering the pool from the same point of entry each day. The position of the platform was changed daily to one of four predetermined positions. Each rat was tested twice each day over the four days, referred to as runs 1 and 2 on sessions I-IV. Initially the rat was placed on the platform for 60 seconds. It was then removed and placed at the point of entry and allowed a maximum of 120 seconds to locate the platform (run 1). The second run for that day followed 60 seconds later (run 2). In the second run the rat is expected to find the platform much sooner, having benefitted from its earlier experience. […] The average latency of run 1 in four sessions on four different days was then related to the corresponding parameter of run 2. The smaller the ratio of […], the better the short range learning score.
# Table 8. […] The data are the latencies in seconds±SEM that it took a given group to locate a submerged and invisible platform the location of which was shifted from one session to the other. The time interval between sessions was one day, and that between successive runs was 60 seconds. (n=7-8 rats per group) TABLE 8
# [3] = tested on: rats; assay: Maximal electroshock (MES) model in rats, p.o.;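 also: rat MES model gauging antiepileptic efficacy versus generalized and partial seizures after oral dosing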; type: in vivo; details: Rattus norvegicus, po, read-out: RATS MES 50
# [4] = in vivo; details: rat, in vivo, po
# Description: (§1) Neurotoxicity of the claimed agents was also assessed in mice (i.p. administration) by the rotorod ataxia test and/or in rats (p.o. administration) by positional sense test and gait stance test. […] The term quantitating the neurotoxicity is the medial neurological toxic dose (TD50), was determined in the above tests.
# [5] = tested on: rats; assay: Neurotoxicity in rats (positional sense test and gait stance test), p.o.; details: rats, p.o.; Table 16
# Description: as §1
# [6] = tested on: mechanically dissociated neonatal rat cerebellum; assay: Reversal of NMDA induced cell death in cultures of neonatal rat cerebellum; type: cell-based; details: for SURVIVING CELL IN CULTURE: relative to control (100%); for PERCENT PROTECTION: Cell Survival minus the NMDA effect; for EFFECTIVE PROTECTION: X x 100/70
# How it was run: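 Cerebellar cells from 6–7-day rat pups on poly-L-lysine at 200/mm^2, grown 3 days (37°C, 5% CO2), then compound with NMDA challenge (1mM, 3 hours); spermine (0.01 micromoles) plus NMDA as positive control, duplicates. Survival by phase contrast and trypan blue after 24 hours; effective protection = percent protection ×100/70.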
# [7] = 0.005 µM + NMDA 1mM for 3 hours
# [8] = 0.010 µM + NMDA 1mM for 3 hours
# [9] = 0.100 µM + NMDA 1mM for 3 hours
Structure (SMILES),"latency of response, before electroshock [1] [s]","latency of response, 48h after electroshock [1] [s]",latency to locate submerged platform ([2]; Session I Run 1) [s],latency to locate submerged platform ([2]; Session I Run 2) [s],latency to locate submerged platform ([2]; Session II Run 1) [s],latency to locate submerged platform ([2]; Session II Run 2) [s],latency to locate submerged platform ([2]; Session III Run 1) [s],latency to locate submerged platform ([2]; Session III Run 2) [s],latency to locate submerged platform ([2]; Session IV Run 1) [s],latency to locate submerged platform ([2]; Session IV Run 2) [s],TD50 [4] [mg/kg],RATS TD50 [5] [mg/kg],"SURVIVING CELL IN CULTURE [6, 7] [%]",PERCENT PROTECTION ([6]; 0.005 µM + NMDA) [%],EFFECTIVE PROTECTION ([6]; 0.005 µM + NMDA) [%],"SURVIVING CELL IN CULTURE [6, 8] [%]",PERCENT PROTECTION ([6]; 0.010 µM + NMDA) [%],EFFECTIVE PROTECTION ([6]; 0.010 µM + NMDA) [%],"SURVIVING CELL IN CULTURE [6, 9] [%]",PERCENT PROTECTION ([6]; 0.100 µM + NMDA) [%],further results
C#CCN(C)[C@H](C)Cc1ccccc1 [deprenyl],53 ± 7,153 ± 37,42 ± 16,40 ± 17,42 ± 18,35 ± 16,32 ± 15,8 ± 2,19 ± 6,12 ± 4,,,,,,,,,,,
"N[C@@H]1CCc2ccccc21 [R-AI, (R)-1-aminoindan]",53 ± 6,245 ± 33,50 ± 16,25 ± 12,25 ± 8,14 ± 3,19 ± 5,14 ± 3,15 ± 5,6 ± 2,492,492,80,50,71,30,0,0,28,-2,ED50 [3]: 184 mg/kg
"CC(=O)N[C@@H]1CCc2ccccc21 [Example 18, (R)-N-Acetyl-1-aminoindan]",,,,,,,,,,,> 500,>500,80,50,71,80,50,71,55,25,"ED50 ([3]; rats, p.o., Table 15): 14 mg/kg; EFFECTIVE PROTECTION ([6]; 0.100 µM + NMDA): 36%; SURVIVING CELL IN CULTURE ([6]; 1.000 µM + NMDA 1mM for 3 hours): 47%; PERCENT PROTECTION ([6]; 1.000 µM + NMDA): 17%; EFFECTIVE PROTECTION ([6]; 1.000 µM + NMDA): 24%; SURVIVING CELL IN CULTURE ([6]; 5.000 µM + NMDA 1mM for 3 hours): 32%; PERCENT PROTECTION ([6]; 5.000 µM + NMDA): 2%; EFFECTIVE PROTECTION ([6]; 5.000 µM + NMDA): 3%"
